# Test results published in US20260275280A1, “DIRECTED DIFFERENTIATION PROTOCOLS TO DERIVE BONE FIDE SPINAL SENSORY INTERNEURONS” (THE REGENTS OF THE UNIVERSITY OF CALIFORNIA, priority 2022, published 2026).
# Values joined by “and” are separate entries in the source; they are usually repeats but may differ in a detail not shown here. Identical values can stand only once.
# Columns and labels:
# [1] = test system: mESCs derived spinal NPCs; assay: Sufficiency of Wnt ligands or CHIR for dI fates (RT-qPCR at day 9); assay type: cell-based, mouse
# Method: The mouse ESC line, MM13, was routinely maintained in ES cell media (DMEM+20% FBS) with 100u/ml of mouse leukocyte inducing factor (LIF). […] To prepare cells for the differentiation, ESC colonies were dissociated with 0.25% trypsin and plated on gelatin coated plates at 1:10 dilution to reduce MEF transfer. Cells cultured on gelatin coated plates and allowed to proliferate for 1-2 days. To initiate differentiation, cells were plated on 0.1% gelatin coated 24-well CellBIND dishes (Corning) at 20,000 cells/ml density in 0.5 ml/well N2/B27 medium that contains 10 ng/ml basic fibroblast growth factor (bFGF). The N2/B27 medium contains 1:1 portions of Advanced Dulbecco's modified Eagle Media (DMEM) F12 (Hyclone) and Neurobasal media (Thermo Fisher Scientific) supplemented with 0.5×N2, 1×B27 supplement (with Vitamin A), 2 mM L-glutamine, 0.1 mM 2-mercaptoethanol (ME), and 1% BSA. On day 1, small colonies of cells can be observed attached to the bottom of the wells. On day 2, cells were supplemented with 10 ng/ml bFGF and 5 μM CHIR99021 for 24 hours to induce a neuromesodermal identity (Gouti et al., 2014). On day 3, media was changed as follows: for protocol 1, cells were exposed to 100 nM RA for 48 hrs. For protocol 2, 10 ng/ml human recombinant BMP4 (Thermo Fisher Scientific) was added concomitantly with 100 nM RA (RA+BMP4) for 48 hrs. For protocol 3, cells were exposed to 100 nM RA for 24 hrs, followed by a pulse of RA+BMP4 for another 24 hours. To induce terminal differentiation in all three conditions, the medium containing growth factors was replaced with basic N2/B27 medium at day 5, and cell allowed to differentiate to day 9. At the end of the differentiation, the cultures were fixed for immunohistochemical analysis or lysed to obtain RNA for RNA-Seq or quantitative reverse transcriptase PCR analysis.
# Quantitative (a) RT-PCR analysis: RNA was isolated with RNeasy Mini Kit (Qiagen, cat no. 74104), and converted to cDNA using Superscript IV First Strand Synthesis kit (Thermo Fisher Scientific). qRT-PCR was performed using SYBR Green PCR Master Mix (Applied Biosystems) on Roche 480 Lightcycler (Roche). The relative fold expression was calculated using 2-AACt method of comparing the expression of the target gene with that of the housekeeping gene glyceraldehyde 3-phosphate dehydrogenase (Gapdh). All experiments were repeated at least 2-3 times (technical replicates) from at least two independent differentiations (biological replicates), and data is represented as mean±SEM.
# We assessed these models, first by determining the effect of canonical Wnts (Wnt1, Wnt2, and Wnt3a), a non-canonical Wnt (Wnt9b) and a small molecule Wnt agonist (CHIR99021) on dI identity in the RA±BMP4 protocols. When Wnts were added in combination with RA, they were unable to induce the dorsal-most dIs by day 9 (FIG. 14A). […] Thus, Wnts are not sufficient to direct dI fate identity.
# mESC-derived neurons = assay: Single-cell RNA sequencing of day 9 cultures, assignment of dI identities; assay type: cell-based, mouse; settings: scRNA-Seq
# Method: Preparation of single cell suspension: Day 9 cultures from both protocol1 (RA) and protocol3 (RA+BMP4) were dissociated with 0.25% cold trypsin for 5 mins. Trypsin activity was stopped with the addition of trypsin inhibitor (Sigma-Aldrich) in 1:1 ratio. Cells were then pelleted by centrifugation at 1000RPM and resuspended in 1× PBS. The ratio of viable cells was determined using Trypan blue staining. Dead cells were removed using MACS dead cell removal kit (Miltenyi Biotec Inc.) by following the manufacturer's protocol. Eluted live cells were then suspended in 1× PBS containing 0.04% BSA solution (400 μg/ml) for the library preparation.
# Library preparation, and sequencing: ~10,000 live cells/conditions were used to construct single-cell specific cDNA libraries using protocol described in 10× Genomics chromium single cell 3′ reagent kit (v3.1 Chemistry). Briefly, cells were partitioned into nanoliter-scale Gel-Beads-in-emulsion (GEM) using the 10× Chromium controller. Each GEM contains a unique barcode which is shared among the cDNA generated from a single cell. Cells were then lysed, and cDNA synthesis and feature barcoding were performed in the GEMs. The sequencing libraries were recovered using Magnetic separation and the quantity and quality of cDNA were assessed by Agilent 2100 expert High Sensitivity DNA Assay. cDNA samples were sequenced on 1 lane of NovaSeq 6000 S2 flow cell and reads were mapped to mouse mm10 genome using Cell Ranger v.3.0.2 to generate fasq files.
# Filtering genes and cells: Seurat package v3.1.1 was used for the analysis. For each condition, genes expressing in less than 3 cells were removed and cells with >250 features were retained. PCA was used for dimension reduction (npcs=50) with top 3000 most variable genes. Raw count data were normalized using regularized negative binomial regression with SCT transformation. Cell clustering is done using Shared Nearest Neighbor (SNN) Graph method and cluster specific markers were identified by Wilcox Rank Sum test.
# Each cell cluster was annotated by a combination of the following methods 1) the expression of known canonical cell-type markers 2) Gene Set Enrichment Analysis (GSEA) of cluster specific markers determined by FindMarkers function in Seurat.
# Reclustering of neuronal clusters: From the entire single-cell dataset, neuronal cells were first identified by the expression of pan-neuronal markers-Tubb3 and Elavl1/2. Roughly 30% cells express these markers in both protocol 1 and protocol 3 and were thus annotated as the mature neurons. The neuronal populations were then extracted using the Seurat package in R, by clustering the cells expressing Tubb3 >2 (median normalized log expression levels) using the Shared Nearest Neighbor (SNN) Graph method. […] Clusters were visualized with Uniform Manifold Approximation Projection (UMAP) method and the unique cluster-specific markers were identified using FindMarker function in Seurat.
# To assess whether protocols 1 and 3 direct distinct classes of dIs, we obtained single-cell transcriptomes from 9,704 cells using protocol 1 and 13,121 cells using protocol 3, taken at day 9 of the differentiation procedure (FIG. 2A). We performed Louvain clustering followed by Uniform Manifold Approximation and Projection (UMAP) plots, to visualize groups of transcriptionally distinct cell types (Becht et al., 2018). This pipeline identified 21 dusters of cells in both protocol 1 (FIG. 2C) and protocol 3 (FIG. 2D). In both conditions, ~30% of cells identify as being stressed; they cluster separately and display <2000 RNA counts (FIGS. 2C, 2D, 9A, 9B). ~2-4% cells are pluripotent stem cells, marked by Sox2, Pou5f1 (Oct4) and Nanog expression, while 5-8% cells are non-neural, either of mesodermal or cardiac neural crest identity, expressing Twist1, Runx2, and Hand2 (Han et al., 2021; Soldatov et al., 2019; Vincentz et al., 2013) (FIGS. 2C, 2D, 9A, 9B). […]
SMILES,"identity of the BMP4-mediated dI fates (Lhx2, Foxd3, IsI2) ([1]; RA+BMP4 protocol, Wnts 100 ng/ml or CHIR 5 μM for 24 hrs at day 5)","induction of BMP4 dependent dI fates (Lhx2, Foxd3, IsI1) ([1]; added with RA at day 4 for 24 hrs, Wnts 100 ng/ml, CHIR 5 μM)",Tubb3+ (Tuj1+) neurons of unknown neural identity (no dI specific markers) (mESC-derived neurons),Tubb3+ (Tuj1+) neurons that are dI1 (mESC-derived neurons),Tubb3+ (Tuj1+) neurons that are dI2 (mESC-derived neurons) [%],Tubb3+ (Tuj1+) neurons that are dI4 (mESC-derived neurons),Tubb3+ (Tuj1+) neurons that are dI5 (mESC-derived neurons),Tubb3+ (Tuj1+) neurons that are dI6 (mESC-derived neurons)
"Cc1c[nH]c(-c2cnc(NCCNc3ccc(C#N)cn3)nc2-c2ccc(Cl)cc2Cl)n1 [CHIR, CHIR99021]",no significant effect,do not induce BMP4-dependent dI fates,–,–,–,–,–,–
"CC1=C(/C=C/C(C)=C/C=C/C(C)=C/C(=O)O)C(C)(C)CCC1 [RA, retinoic acid]",–,–,8.5% and ~ 8.5%,5% and 5.2%,5,~ 33% and 33%,40.5% and 40.6%,8% and 7.6%
